The source of these data is PubChem BioAssay AID1259407 (Chemical Carcinogenesis Research Information System (CCRIS), 2018).

SMILES strings stand for the structures. Activity calls are given as the source filed them. The rule behind the calls is not given here.

The series has as its system CCRIS mutagenicity, Ames/micronucleus/aberration tests. The experiment in a line: CCRIS mutagenicity studies. From the text:
The CCRIS database contains chemical records with carcinogenicity, mutagenicity, tumor promotion, and tumor inhibition test results. It was developed by the National Cancer Institute (NCI). Data are derived from studies cited in primary journals, current awareness tools, NCI reports, and other sources. Test results have been reviewed by experts in carcinogenesis and mutagenesis.
CCRIS provides historical information from the years 1985 - 2011. It is no longer updated.
This is an archive assay for CCRIS mutagenicity studies.

Setting [1] is: Test System: AMES SALMONELLA TYPHIMURIUM, Strain/Indicator: TA98, Metabolic Activation: NONE, Method: STANDARD PLATE.
[2] abbreviates: Test System: AMES SALMONELLA TYPHIMURIUM, Strain/Indicator: TA98, Metabolic Activation: RAT, LIVER, S-9, AROCLOR 1254, Method: STANDARD PLATE.
[3] abbreviates: Test System: AMES SALMONELLA TYPHIMURIUM, Strain/Indicator: TA100, Metabolic Activation: NONE, Method: STANDARD PLATE.
The mark [4] stands for this setting: Test System: AMES SALMONELLA TYPHIMURIUM, Strain/Indicator: TA100, Metabolic Activation: RAT, LIVER, S-9, AROCLOR 1254, Method: STANDARD PLATE.
[5] abbreviates: Test System: AMES SALMONELLA TYPHIMURIUM, Strain/Indicator: TA102, Metabolic Activation: NONE, Method: STANDARD PLATE.
[6] abbreviates: Test System: AMES SALMONELLA TYPHIMURIUM, Strain/Indicator: TA1538, Metabolic Activation: RAT, LIVER, S-9, AROCLOR 1254, Method: STANDARD PLATE.
[7] abbreviates: Test System: Mouse lymphoma, Strain/Indicator: L5178Y (tk+/tk-), Metabolic Activation: None, Method: Suspension/plate.
Where [8] appears, read: Test System: Mouse lymphoma, Strain/Indicator: L5178Y (tk+/tk-), Metabolic Activation: Rat, Liver, S-9, Aroclor 1254, Method: Suspension/plate.

`CCOC(=O)c1[nH]c2ccccc2c1N=Cc1cc(OC)c(OC)c(OC)c1`: the mutagenic call is, setting by setting: (Test System: AMES SALMONELLA TYPHIMURIUM, Strain/Indicator: TA97, Metabolic Activation: NONE, Method: STANDARD PLATE) “active; positive”; (Test System: AMES SALMONELLA TYPHIMURIUM, Strain/Indicator: TA97, Metabolic Activation: RAT, LIVER, S-9, AROCLOR 1254, Method: STANDARD PLATE) “inactive; negative”; under setting [1], “inactive; negative”; under setting [2], “inactive; negative”; under setting [3], “inactive; negative”; under setting [4], “inactive; negative”. For the same compound, the mutagenic call runs as follows: under setting [5], “inactive; negative”; (Test System: AMES SALMONELLA TYPHIMURIUM, Strain/Indicator: TA102, Metabolic Activation: RAT, LIVER, S-9, AROCLOR 1254, Method: STANDARD PLATE) “inactive; negative”.

For `C=C(C)C(C)=O`, the mutagenic call (Test System: AMES SALMONELLA TYPHIMURIUM, Strain/Indicator: TA98, Metabolic Activation: HAMSTER, LIVER, S-9, AROCLOR 1254, Method: STANDARD PLATE) was “inactive; negative”; the mutagenic call under setting [1] is “inactive; negative”; the mutagenic call under setting [2] was “inactive; negative”; the mutagenic call (Test System: AMES SALMONELLA TYPHIMURIUM, Strain/Indicator: TA100, Metabolic Activation: HAMSTER, LIVER, S-9, AROCLOR 1254, Method: STANDARD PLATE) was “inactive; negative”; the mutagenic call under setting [3] was “inactive; negative”; the mutagenic call under setting [4] is “inactive; negative”. In addition, the mutagenic call (Test System: AMES SALMONELLA TYPHIMURIUM, Strain/Indicator: TA1535, Metabolic Activation: HAMSTER, LIVER, S-9, AROCLOR 1254, Method: STANDARD PLATE) was “inactive; negative”; the mutagenic call (Test System: AMES SALMONELLA TYPHIMURIUM, Strain/Indicator: TA1535, Metabolic Activation: NONE, Method: STANDARD PLATE) is “inactive; negative”; the mutagenic call (Test System: AMES SALMONELLA TYPHIMURIUM, Strain/Indicator: TA1535, Metabolic Activation: RAT, LIVER, S-9, AROCLOR 1254, Method: STANDARD PLATE) is “inactive; negative”; the mutagenic call (Test System: AMES SALMONELLA TYPHIMURIUM, Strain/Indicator: TA1537, Metabolic Activation: HAMSTER, LIVER, S-9, AROCLOR 1254, Method: STANDARD PLATE) is “inactive; negative”; the mutagenic call (Test System: AMES SALMONELLA TYPHIMURIUM, Strain/Indicator: TA1537, Metabolic Activation: NONE, Method: STANDARD PLATE) was “inactive; negative”; the mutagenic call (Test System: AMES SALMONELLA TYPHIMURIUM, Strain/Indicator: TA1537, Metabolic Activation: RAT, LIVER, S-9, AROCLOR 1254, Method: STANDARD PLATE) is “inactive; negative”. For the same compound, the mutagenic call by setting is: (Test System: AMES SALMONELLA TYPHIMURIUM, Strain/Indicator: TA1538, Metabolic Activation: HAMSTER, LIVER, S-9, AROCLOR 1254, Method: STANDARD PLATE) “inactive; negative”; (Test System: AMES SALMONELLA TYPHIMURIUM, Strain/Indicator: TA1538, Metabolic Activation: NONE, Method: STANDARD PLATE) “inactive; negative”; under setting [6], “inactive; negative”; under setting [7], “active; positive”; under setting [8], “active; positive”.

Take `Cc1c2ccncc2c(C)c2c1[nH]c1ccccc12`: the mutagenic call was “active; positive” under setting [2]; “active; positive” under setting [5]; “inactive; negative” (Test System: CHINESE HAMSTER V-79, Strain/Indicator: V-79 (HPRT)/6-THIOGUANINE, Metabolic Activation: NONE); “inactive; negative” (Test System: E. COLI, Strain/Indicator: WP2 TM9, Metabolic Activation: NONE, Method: STANDARD PLATE); “inactive; negative” (Test System: MOUSE LYMPHOMA, Strain/Indicator: L5178Y (HPRT)/6-THIOGUANINE, Metabolic Activation: NONE, Method: FLUCTUATION TEST); “active; positive” (Test System: MOUSE LYMPHOMA, Strain/Indicator: L5178Y (TK+/TK-), Metabolic Activation: NONE, Method: FLUCTUATION TEST). Also, the mutagenic call by setting is: (Test System: MOUSE LYMPHOMA, Strain/Indicator: L5178Y (TK+/TK-), Metabolic Activation: NONE, Method: SUSPENSION/PLATE) “active; positive”; under setting [7], “active; positive”; under setting [8], “active; positive”.

Take `CC(N)C(=O)O` (configuration not stated): for the setting “Test System: AMES SALMONELLA TYPHIMURIUM, Strain/Indicator: TA98, Metabolic Activation: RAT LIVER, S-9, CHLOROPHENE, Method: STANDARD PLATE (COMPOUND HEATED AT 250 DEGREES CELSIUS FOR 20 MIN)”, the mutagenic call was “inactive; negative”.

Consider `Nc1c(S(=O)(=O)O)cc2cc(S(=O)(=O)O)ccc2c1N=Nc1ccc(-c2ccc(N=Nc3c(N)c(S(=O)(=O)O)cc4cc(S(=O)(=O)O)ccc34)c(Cl)c2)cc1Cl`, for which the mutagenic call reads like this: (Test System: AMES SALMONELLA TYPHIMURIUM, Strain/Indicator: TA1538, Metabolic Activation: HAMSTER, LIVER, S-9, Method: STANDARD PLATE) “inactive; negative”; under setting [6], “inactive; negative”.
